Drawing on patent publication US20240391936A1, “TETRAHYDROTHIENO PYRIDINE DERIVATIVES AS DDRS INHIBITORS” (CHIESI FARMACEUTICI S.P.A., priority 2021, published 2024), this text covers Ki and IC50 for 14 molecules.

For assay [1], the target named is T1, DDR2 (Homo sapiens, UniProt Q16832).
T1 sequence (Q16832 22-855): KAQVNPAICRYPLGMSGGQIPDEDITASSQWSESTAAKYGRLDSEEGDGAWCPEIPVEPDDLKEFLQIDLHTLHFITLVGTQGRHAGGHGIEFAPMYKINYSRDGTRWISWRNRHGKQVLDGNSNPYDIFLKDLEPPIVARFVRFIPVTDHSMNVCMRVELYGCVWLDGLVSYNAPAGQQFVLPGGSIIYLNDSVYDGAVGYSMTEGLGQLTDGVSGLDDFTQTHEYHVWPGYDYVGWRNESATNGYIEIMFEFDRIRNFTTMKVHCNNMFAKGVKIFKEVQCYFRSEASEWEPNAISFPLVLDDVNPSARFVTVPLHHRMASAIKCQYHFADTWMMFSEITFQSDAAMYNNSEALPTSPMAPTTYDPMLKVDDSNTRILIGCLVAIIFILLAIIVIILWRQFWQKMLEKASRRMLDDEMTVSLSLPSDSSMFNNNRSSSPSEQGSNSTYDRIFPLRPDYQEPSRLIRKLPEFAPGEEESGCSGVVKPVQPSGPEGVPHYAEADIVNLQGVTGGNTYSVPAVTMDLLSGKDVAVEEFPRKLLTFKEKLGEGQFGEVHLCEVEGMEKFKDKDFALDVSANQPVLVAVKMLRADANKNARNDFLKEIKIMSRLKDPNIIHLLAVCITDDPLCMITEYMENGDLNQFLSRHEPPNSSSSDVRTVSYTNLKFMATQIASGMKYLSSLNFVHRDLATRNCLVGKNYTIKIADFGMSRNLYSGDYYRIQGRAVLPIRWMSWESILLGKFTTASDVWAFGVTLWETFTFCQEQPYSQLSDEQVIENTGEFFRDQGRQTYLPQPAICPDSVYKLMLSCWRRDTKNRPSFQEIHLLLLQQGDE
Nature of the assay: DDR2 binding assay (LanthaScreen Europium Kinase Binding assay). The arrangement: purchased Life Technologies. The note with it: binding assay, 5 nM DDR2, 10 nM Kinase Tracer 178; Ki from IC50 by Cheng-Prusoff; read-out: Ki DDR2. The gist of the method: (§1)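 TR-FRET tracer-displacement format: 665/615 nm emission ratio (340 nm excitation) gave IC50 by 4-parameter fit, then Ki via Cheng-Prusoff. Each kinase at 5 nM with 2 nM Eu-anti-GST antibody and Tracer 178 (DDR1 20 nM, DDR2 10 nM), 1 h, room temperature, HEPES pH 7.5 buffer.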
Background: In TR-FRET formats the signal depends on donor and acceptor labels being close together.

The target in assay [2] is T2, DDR1 (Homo sapiens, UniProt Q08345). Nature of the assay: DDR1 binding assay (LanthaScreen Europium Kinase Binding assay). The note with it: binding assay, 5 nM DDR1, 20 nM Kinase Tracer 178; Ki from IC50 by Cheng-Prusoff; read-out: Ki DDR1. The arrangement: purchased Carna Biosciences. In short, it runs like this: as §1
Assay [3] addresses T1, DDR2. Nature of the assay: DDR2 cell based assay (phospho-ELISA in HEK293T-DDR2 recombinant cells). The arrangement: expressed in transfected cells; host or cells: HEK293T-DDR2 recombinant cells. Conditions: bovine Type II Collagen 50 μg/ml. The method, then:
The inhibition of DDR2 phosphorylation by compounds was evaluated in HEK293T-DDR2 recombinant cells by phospho-ELISA assay. Briefly, HEK293T-DDR2 cells were seeded in poly-D-lysine-coated 24-well plates at a density of 250.000 cells/well and incubated for 1.5 hours at 37° C. and 5% CO2 in DMEM+10% FBS. After that, the medium was changed to serum-free DMEM and cells were incubated for 3 hours. Then. test compounds were added at different concentrations 30 minutes before stimulation with bovine Type II Collagen at 50 μg/ml for further 3 hours. For DDR2 phospho-ELISA assay (DuoSet IC Human Phospho-DDR2; R&D Systems), protein extracts were obtained by adding 60 μl/well of lysis buffer prepared according to the manufacturer's instructions. Protein concentration in the samples was determined by BCA assay and the levels of phospho-DDR2 were determined following R&D Systems indications. Raw data were normalized to maximal inhibition control (0% for normalization) and positive control (100% for normalization; cells treated with […] collagen II) and IC50 parameters were calculated in GraphPad Prism 8.0 software, using sigmoidal dose-response curve fitting with variable slope.
In general terms: ELISA stands for enzyme-linked immunosorbent assay.

Assay [4] has as its target T2, DDR1. Description: DDR1 cell based assay (PathHunter U2OS DDR1 assay). Further details: host or cells: U2OS-DDR1 (PathHunter). Conditions: U2OS-DDR1 cells, bovine Type II Collagen 20 μg/ml. In short, it runs like this:
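Receptor activation measured by enzyme-fragment complementation luminescence in engineered U2OS cells. Compound added 30 min before overnight challenge with 20 μg/ml bovine collagen II; data scaled between vehicle and collagen-stimulated controls, IC50 derived by four-parameter variable-slope fitting.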

T2 sequence (Q08345 19-913): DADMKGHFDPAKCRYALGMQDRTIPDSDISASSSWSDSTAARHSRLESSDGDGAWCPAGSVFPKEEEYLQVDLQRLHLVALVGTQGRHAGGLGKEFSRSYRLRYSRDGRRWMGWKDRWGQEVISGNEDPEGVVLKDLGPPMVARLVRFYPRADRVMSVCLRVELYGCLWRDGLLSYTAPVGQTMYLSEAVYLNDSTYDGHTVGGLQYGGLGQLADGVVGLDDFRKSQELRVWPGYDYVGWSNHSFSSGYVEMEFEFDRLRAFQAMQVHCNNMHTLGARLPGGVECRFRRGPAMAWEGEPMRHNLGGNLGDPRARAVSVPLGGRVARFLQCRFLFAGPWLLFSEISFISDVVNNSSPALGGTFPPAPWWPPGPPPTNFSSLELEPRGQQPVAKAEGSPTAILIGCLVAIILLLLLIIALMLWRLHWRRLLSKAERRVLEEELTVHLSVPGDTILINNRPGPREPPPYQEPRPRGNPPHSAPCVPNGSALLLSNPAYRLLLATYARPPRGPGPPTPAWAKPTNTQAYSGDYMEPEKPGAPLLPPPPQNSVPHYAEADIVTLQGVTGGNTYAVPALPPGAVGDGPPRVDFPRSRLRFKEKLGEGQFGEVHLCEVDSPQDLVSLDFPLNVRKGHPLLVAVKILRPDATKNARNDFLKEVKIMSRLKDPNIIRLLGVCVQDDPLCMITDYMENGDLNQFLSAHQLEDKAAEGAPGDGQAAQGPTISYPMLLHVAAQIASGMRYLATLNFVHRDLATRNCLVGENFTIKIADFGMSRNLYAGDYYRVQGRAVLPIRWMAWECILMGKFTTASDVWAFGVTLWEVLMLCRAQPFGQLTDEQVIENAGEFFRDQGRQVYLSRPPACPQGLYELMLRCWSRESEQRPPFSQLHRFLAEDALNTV

By Ki is commonly meant the dissociation constant of the complex between target and ligand, obtained from inhibition or displacement. As a reminder, the IC50 is the concentration that gives 50% inhibition. Consider `O=C(Nc1cncc(C(F)(F)F)c1)c1csc2c1CCN(Cc1cnc3ccnn3c1)C2` [Example 152, 6-(pyrazolo[1,5-a]pyrimidin-6-ylmethyl)-N-(5-(trifluoromethyl)pyridin-3-yl)-4,5,6,7-tetrahydrothieno[2,3-c]pyridine-3-carboxamide], for which the Ki at DDR2 [1] and at DDR1 [2] was under 25 nM throughout. Further, the IC50 at DDR2 [3] and at DDR1 [4] was under 25 nM throughout.

For the molecule `CN1CCN(c2ccc3ncc(C(=O)N4CCc5c(C(=O)Nc6cccc(C(F)(F)F)c6)csc5C4)n3c2)CC1` [Example 136, 6-(6-(4-methylpiperazin-1-yl)imidazo[1,2-a]pyridine-3-carbonyl)-N-(3-(trifluoromethyl)phenyl)-4,5,6,7-tetrahydrothieno[2,3-c]pyridine-3-carboxamide], the Ki on DDR2 [1] and at DDR1 [2] was under 25 nM in each case. The IC50 at DDR2 [3] and on DDR1 [4] was under 25 nM each time.

For `O=C(Nc1cccc(OC(F)(F)F)c1)c1csc2c1CCN(Cc1cnc3[nH]ncc3c1)C2` [Example 66, 6-((1H-pyrazolo[3,4-b]pyridin-5-yl)methyl)-N-(3-(trifluoromethoxy)phenyl)-4,5,6,7-tetrahydrothieno[2,3-c]pyridine-3-carboxamide], the Ki at DDR2 [1] and on DDR1 [2] was under 25 nM each time. Also, the IC50 at DDR2 [3] and against DDR1 [4] was under 25 nM in each case.

With `O=C(Nc1cncc(C(F)(F)F)c1)c1csc2c1CCN(Cc1cnc3[nH]ncc3c1)C2` [Example 151, 6-(1H-pyrazolo[3,4-b]pyridin-5-ylmethyl)-N-[5-(trifluoromethyl)-3-pyridyl]-5,7-dihydro-4H-thieno[2,3-c]pyridine-3-carboxamide], the Ki on DDR2 [1] and on DDR1 [2] was under 25 nM each time. Moreover, the IC50 at DDR2 [3] and against DDR1 [4] was under 25 nM each time.

Take `O=C(Nc1cc(F)cc(C(F)(F)F)c1)c1csc2c1CCN(Cc1cnc3[nH]ccc3c1)C2` [Example 73, 6-((1H-pyrrolo[2,3-b]pyridin-5-yl)methyl)-N-(3-fluoro-5-(trifluoromethyl)phenyl)-4,5,6,7-tetrahydrothieno[2,3-c]pyridine-3-carboxamide]: the Ki is 25 to 50 nM at DDR2 [1] and under 25 nM at DDR1 [2]. Further, the IC50 on DDR2 [3] and against DDR1 [4] was under 25 nM in each case.

For the molecule `O=C(Nc1cc(OCCN2CCOCC2)cc(C(F)(F)F)c1)c1csc2c1CCN(C(=O)c1cnc3ccccn13)C2` [Example 24, 6-(imidazo[1,2-a]pyridine-3-carbonyl)-N-(3-(2-morpholinoethoxy)-5-(trifluoromethyl)phenyl)-4,5,6,7-tetrahydrothieno[2,3-c]pyridine-3-carboxamide], the Ki on DDR2 [1] and on DDR1 [2] was under 25 nM each time. Further, the IC50 at DDR2 [3] was 25 to 50 nM; against DDR1 [4], under 25 nM.

Take `CC1c2scc(C(=O)Nc3cccc(C(F)(F)F)c3)c2CCN1Cc1cnc2[nH]ccc2c1` (single isomer, unassigned) [Example 106, 6-((1H-pyrrolo[2,3-b]pyridin-5-yl)methyl)-7-methyl-N-(3-(trifluoromethyl)phenyl)-4,5,6,7-tetrahydrothieno[2,3-c]pyridine-3-carboxamide]: the Ki at DDR2 [1] and at DDR1 [2] was under 25 nM throughout. Moreover, the IC50 was 25 to 50 nM at DDR2 [3] and under 25 nM against DDR1 [4].

Consider `Cc1cn(-c2cc(NC(=O)c3csc4c3CCN(C(=O)c3cnc5ccccn35)[C@@H]4C)cc(C(F)(F)F)c2)cn1` [Example 101, (R)-6-(imidazo[1,2-a]pyridine-3-carbonyl)-7-methyl-N-(3-(4-methyl-1H-imidazol-1-yl)-5-(trifluoromethyl)phenyl)-4,5,6,7-tetrahydrothieno[2,3-c]pyridine-3-carboxamide], for which the Ki on DDR2 [1] and on DDR1 [2] was under 25 nM each time. In addition, the IC50 at DDR2 [3] and against DDR1 [4] was under 25 nM each time.

On to `O=C(Nc1cccc(C(F)(F)F)c1)c1csc2c1CCN(Cc1cnc3[nH]ncc3c1)C2` [Example 85, 6-((1H-pyrazolo[3,4-b]pyridin-5-yl)methyl)-N-(3-(trifluoromethyl)phenyl)-4,5,6,7-tetrahydrothieno[2,3-c]pyridine-3-carboxamide], for which the Ki on DDR2 [1] and on DDR1 [2] was under 25 nM each time. For the same molecule, the IC50 on DDR2 [3] and at DDR1 [4] was under 25 nM in each case.

`O=C(Nc1cccc(OC(F)(F)F)c1)c1csc2c1CCN(C(=O)c1cnc3ccccn13)C2` [Example 8, 6-(imidazo[1,2-a]pyridine-3-carbonyl)-N-(3-(trifluoromethoxy)phenyl)-4,5,6,7-tetrahydrothieno[2,3-c]pyridine-3-carboxamide]: the Ki on DDR2 [1] and on DDR1 [2] was under 25 nM each time. Besides, the IC50 on DDR2 [3] and on DDR1 [4] was under 25 nM each time.

Turning to `C[C@@H]1c2scc(C(=O)Nc3cccc(C(F)(F)F)c3)c2CCN1C(=O)c1cnc2ccccn12` [Example 100, (R)-6-(imidazo[1,2-a]pyridine-3-carbonyl)-7-methyl-N-(3-(trifluoromethyl)phenyl)-4,5,6,7-tetrahydrothieno[2,3-c]pyridine-3-carboxamide], the Ki on DDR2 [1] and on DDR1 [2] was under 25 nM throughout. The IC50 at DDR2 [3] and against DDR1 [4] was under 25 nM in each case.

With `CC1(C)c2scc(C(=O)Nc3cccc(C(F)(F)F)c3)c2CCN1C(=O)c1cnc2ccccn12` [Example 102, 6-(imidazo[1,2-a]pyridine-3-carbonyl)-7,7-dimethyl-N-(3-(trifluoromethyl)phenyl)-4,5,6,7-tetrahydrothieno[2,3-c]pyridine-3-carboxamide], the Ki at DDR2 [1] and at DDR1 [2] was under 25 nM in each case. Moreover, the figures for the IC50 on DDR2 [3] and against DDR1 [4] were 25 to 50 nM and under 25 nM, respectively.

In the case of `O=C(Nc1cc(F)cc(OC(F)(F)F)c1)c1csc2c1CCN(Cc1cnc3[nH]ncc3c1)C2` [Example 174, 6-((1H-pyrazolo[3,4-b]pyridin-5-yl)methyl)-N-(3-fluoro-5-(trifluoromethoxy)phenyl)-4,5,6,7-tetrahydrothieno[2,3-c]pyridine-3-carboxamide], the Ki at DDR2 [1] and at DDR1 [2] was under 25 nM throughout. For the same molecule, the results for the IC50 on DDR2 [3] and against DDR1 [4] were 50 to 80 nM and under 25 nM, respectively.

Turning to `CN1CCN(Cc2cc(NC(=O)c3csc4c3CCN(C(=O)c3cnc5ccccn35)C4)cc(C(F)(F)F)c2)CC1` [Example 1, 6-(imidazo[1,2-a]pyridine-3-carbonyl)-N-(3-((4-methylpiperazin-1-yl)methyl)-5-(trifluoromethyl)phenyl)-4,5,6,7-tetrahydrothieno[2,3-c]pyridine-3-carboxamide], the Ki on DDR2 [1] and at DDR1 [2] was under 25 nM each time. For the same molecule, the figures for the IC50 on DDR2 [3] and against DDR1 [4] were under 25 nM and 25 to 50 nM, respectively.
